# Values of other authors as cited in patent publication US10420763B2, “Sublingual apomorphine” (Sunovion Pharmaceuticals Inc., priority 2009, dated 2019).
# Test system: Parkinson's patients
structure (smiles),measurement,setting,value
CN1CCc2cccc3c2[C@H]1Cc1ccc(O)c(O)c1-3 [apomorphine],adverse effects of intranasal administration,intranasal administration (Koller et al. 2004),"transient nasal blockage, burning sensation and swollen nose and lips"
same,common side effect of subcutaneous injection,subcutaneous injection (Prietz et al. 1998),"development of nodules, which often become infected"
same,adverse effects of sublingual tablets,"sublingual administration of apomorphine tablets, prolonged use (Deffond et al. 1993)",severe stomatitis on prolonged use with buccal mucosal ulceration in half the patients treated
